Data set [1] addresses Histone deacetylase 1 (Homo sapiens) (UniProt Q13547). As to the kind of experiment: Inhibition of human HDAC1 at 1uM using RHKKAc as substrate by fluorescence method relative to control.
Data set [2] addresses T1, Lysine-specific histone demethylase 1A (Homo sapiens, UniProt O60341). The data set is described as follows: Inhibition of LSD1 in human MM1.S cells assessed as modulation of p21 mRNA expression at 0.5 uM after 6 to 24 hrs by qRT-PCR analysis. The class given is cell-based. The conditions noted are these: time lower 6.0 hrs, time upper […]. Background: Quantitative PCR measures a nucleic acid by following its amplification.

Data set [3] addresses T1, Lysine-specific histone demethylase 1A. The data set is described as follows: Inhibition of LSD1 in human MM1.S cells assessed as modulation of c-Myc mRNA expression at 0.5 uM after 6 to 24 hrs by qRT-PCR analysis. The class given is cell-based. The conditions noted are these: time lower 6.0 hrs, time upper […].
The target is the same in data set [4]. The data set is described as follows: Inhibition of LSD1 in human MM1.S cells assessed as modulation alpha-tubulin acetylation at 100 to 500 nM after 1 to 3 hrs by Western blot analysis. The conditions noted are these: dose 100-500 nM, time 1-3 hrs. The class given is cell-based. (In general: A western blot detects proteins with antibodies after separation by electrophoresis.)

In data set [5] the target is T2, Protein deacetylase HDAC6 (Homo sapiens) (UniProt Q9UBN7).
T2 sequence (whole entry): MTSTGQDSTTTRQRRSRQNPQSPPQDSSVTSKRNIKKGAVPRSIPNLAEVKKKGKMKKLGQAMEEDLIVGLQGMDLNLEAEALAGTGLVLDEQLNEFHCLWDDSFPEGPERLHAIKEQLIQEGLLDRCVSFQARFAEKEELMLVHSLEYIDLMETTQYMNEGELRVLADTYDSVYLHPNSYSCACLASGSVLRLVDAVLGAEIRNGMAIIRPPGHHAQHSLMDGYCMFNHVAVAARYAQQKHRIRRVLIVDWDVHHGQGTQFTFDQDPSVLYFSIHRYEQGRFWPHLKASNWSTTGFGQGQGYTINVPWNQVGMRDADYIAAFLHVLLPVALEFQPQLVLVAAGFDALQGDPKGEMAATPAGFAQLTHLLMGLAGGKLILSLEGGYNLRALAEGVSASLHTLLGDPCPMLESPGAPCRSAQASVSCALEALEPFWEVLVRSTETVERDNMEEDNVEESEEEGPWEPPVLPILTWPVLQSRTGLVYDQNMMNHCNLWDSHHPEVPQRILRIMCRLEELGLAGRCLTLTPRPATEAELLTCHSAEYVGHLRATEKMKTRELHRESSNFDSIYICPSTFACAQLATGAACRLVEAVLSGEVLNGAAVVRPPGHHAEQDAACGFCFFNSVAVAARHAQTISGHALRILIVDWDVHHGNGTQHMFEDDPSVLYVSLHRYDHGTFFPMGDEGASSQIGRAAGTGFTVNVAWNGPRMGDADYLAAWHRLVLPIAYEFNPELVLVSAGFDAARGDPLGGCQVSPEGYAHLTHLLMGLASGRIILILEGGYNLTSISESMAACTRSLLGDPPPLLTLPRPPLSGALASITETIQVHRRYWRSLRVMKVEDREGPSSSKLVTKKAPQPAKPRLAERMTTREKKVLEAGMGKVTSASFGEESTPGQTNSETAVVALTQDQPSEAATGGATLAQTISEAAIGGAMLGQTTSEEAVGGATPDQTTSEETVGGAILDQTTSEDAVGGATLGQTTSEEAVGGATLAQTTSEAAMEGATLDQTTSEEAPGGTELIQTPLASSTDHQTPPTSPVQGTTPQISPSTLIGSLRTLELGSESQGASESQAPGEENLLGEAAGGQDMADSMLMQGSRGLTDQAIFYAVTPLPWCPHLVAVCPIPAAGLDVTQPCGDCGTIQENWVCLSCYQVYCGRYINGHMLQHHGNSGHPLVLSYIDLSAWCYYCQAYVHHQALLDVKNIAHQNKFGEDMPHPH
The data set is described as follows: Inhibition of HDAC6 in human MM1.S cells assessed as modulation of p21 mRNA expression at 0.5 uM after 6 to 24 hrs by qRT-PCR analysis. It is filed as cell-based. The conditions noted are these: time lower 6.0 hrs, time upper […].

Data set [6] deals with T2, Protein deacetylase HDAC6 (Homo sapiens). As to the kind of experiment: Inhibition of HDAC6 in human MM1.S cells assessed as modulation of c-Myc mRNA expression at 0.5 uM after 6 to 24 hrs by qRT-PCR analysis. The class given is cell-based. The following applies: time lower 6.0 hrs, time upper […].
For data set [7] the target is unchanged. As to the kind of experiment: Inhibition of HDAC6 in human MM1.S cells assessed as modulation alpha-tubulin acetylation at 100 to 500 nM after 1 to 3 hrs by Western blot analysis. It is filed as cell-based. The following applies: dose 100-500 nM, time 1-3 hrs.
The target of data set [8] is T1, Lysine-specific histone demethylase 1A. As to the kind of experiment: Inhibition of LSD1 (unknown origin).
Data set [9] relates to MM1.S. As to the kind of experiment: Antiproliferative activity against human MM1.S cells assessed as reduction in cell viability after 144 hrs. It is filed as functional, cell-based.
A short description of data set [10]: Stability in human liver microsomes assessed as parent compound remaining measured after 30 mins. It is filed as ADME, Microsome. The following applies: liver microsomes, read-out: Stabilty. (In general: Microsomes from liver hold many membrane-bound enzymes, among them those of drug oxidation.)
Data set [11] in a line: Stability in mouse liver microsomes assessed as parent compound remaining measured after 30 mins. It is filed as ADME, Microsome. The following applies: liver microsomes, read-out: Stabilty.
Data set [12] deals with MM1.S. As to the kind of experiment: Antitumour activity against human MM1.S cells xenografted in SCID mouse assessed as tumour growth inhibition at 50 mg/kg, […] for 12 days relative to control. It is filed as functional. The following applies: 288 h, time 12 day, read-out: TGI.

Molecules are shown by their SMILES. The source made the active and inactive calls. The rule behind the calls is not given here.

Sequence of Histone deacetylase 1 (Homo sapiens) (Q13547 whole entry): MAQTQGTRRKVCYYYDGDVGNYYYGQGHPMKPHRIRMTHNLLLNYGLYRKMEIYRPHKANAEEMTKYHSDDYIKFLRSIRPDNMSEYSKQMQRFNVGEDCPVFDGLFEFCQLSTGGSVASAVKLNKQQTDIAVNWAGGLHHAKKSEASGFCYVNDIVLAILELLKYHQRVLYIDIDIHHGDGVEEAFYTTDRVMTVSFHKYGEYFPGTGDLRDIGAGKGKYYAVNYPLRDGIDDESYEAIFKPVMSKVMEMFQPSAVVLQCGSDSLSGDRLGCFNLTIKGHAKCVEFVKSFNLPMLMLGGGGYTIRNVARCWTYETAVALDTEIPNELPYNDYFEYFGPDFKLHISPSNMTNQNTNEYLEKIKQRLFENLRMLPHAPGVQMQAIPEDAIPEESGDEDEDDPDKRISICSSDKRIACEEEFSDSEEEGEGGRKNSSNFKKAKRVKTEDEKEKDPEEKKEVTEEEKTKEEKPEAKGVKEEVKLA

`O=C(NO)c1ccc(CCCN2CCC(CN[C@H]3C[C@@H]3c3ccccc3)CC2)cc1` (racemic): the inhibition (as a rule, the change of the read-out against control, counted positive when it falls) in data set [1] is 18.4%. The inhibition entry in [2], in [3], in data set [4], in data set [5], in data set [6] and in data set [7] was “Active” throughout.
On to `O=C(CCCCCCNC(=O)c1cnc(N(c2ccccc2)c2ccccc2)nc1)NO` [RICOLINOSTAT], for which, in data set [8], the IC50 result is “Not Active”. Also, the EC50 (as a rule, the concentration that produces a half-maximal response) in the data set with MM1.S [9] worked out at 0.85 nM. Further, the remaining at 0.5 h in [10] worked out at 93%; in data set [11], 77%. Besides, the inhibition in vivo at 50 mg/kg with MM1.S [12] amounted to 36%.
